# Measurements as given in patent publication US11633481B2, “Surfactants for use in healthcare products” (priority 2019, dated 2023).
# Tests used:
# Format in all cases: physicochemical
# [1] = Dynamic surface tension with bubble pressure tensiometer; details: 23° C.
# Description: Another parameter used to assess the performance of surfactants is dynamic surface tension. The dynamic surface tension is the value of the surface tension for a particular surface or interface age. In the case of liquids with added surfactants, this can differ from the equilibrium value. Immediately after a surface is produced, the surface tension is equal to that of the pure liquid. As described above, surfactants reduce surface tension; therefore, the surface tension drops until an equilibrium value is reached. The time required for equilibrium to be reached depends on the diffusion rate and the adsorption rate of the surfactant.
# One method by which dynamic surface tension is measured relies upon a bubble pressure tensiometer. This device measures the maximum internal pressure of a gas bubble that is formed in a liquid by means of a capillary. The measured value corresponds to the surface tension at a certain surface age, the time from the start of the bubble formation to the occurrence of the pressure maximum. The dependence of surface tension on surface age can be measured by varying the speed at which bubbles are produced.
# (§1) Nuclear magnetic resonance (NMR) spectroscopy was performed on a Bruker 500 MHz spectrometer. The critical micelle concentration (CMC) was determined by the Wilhelmy plate method at 23° C. with a tensiometer (DCAT 11, DataPhysics Instruments GmbH) equipped with a Pt—Ir plate. Dynamic surface tension was determined with a bubble pressure tensiometer (Krüss BP100, Krüss GmbH), at 23° C. Contact angle was determined with the optical contact angle goniometer (OCA 15 Pro, DataPhysics GmbH) equipped with a digital camera.
# [2] = Contact angle (wetting) with optical contact angle goniometer; details: 10× CMC in water
# Description: Surface-active compounds may also be assessed by their wetting ability on solid substrates as measured by the contact angle. When a liquid droplet comes in contact with a solid surface in a third medium, such as air, a three-phase line forms among the liquid, the gas and the solid. The angle between the surface tension unit vector, acting at the three-phase line and tangent at the liquid droplet, and the surface is described as the contact angle. The contact angle (also known as wetting angle) is a measure of the wettability of a solid by a liquid. In the case of complete wetting, the liquid is completely spread over the solid and the contact angle is 0°. Wetting properties are typically measured for a given compound at the concentration of 1-100×CMC, however, it is not a property that is concentration-dependent therefore measurements of wetting properties can be measured at concentrations that are higher or lower.
# In one method, an optical contact angle goniometer may be used to measure the contact angle. This device uses a digital camera and software to extract the contact angle by analyze the contour shape of a sessile droplet of liquid on a surface.
# as §1
# [3] = Critical micelle concentration and minimum surface tension by Wilhelmy plate method
# Description: These properties may be measured and described by various methods. One method by which surfactants may be described is by the molecule's critical micelle concentration (CMC). CMC may be defined as the concentration of a surfactant at which micelles form, and above which all additional surfactant is incorporated into micelles.
# As surfactant concentration increases, surface tension decreases. Once the surface is completely overlaid with surfactant molecules, micelles begin to form. This point represents the CMC, as well as the minimum surface tension. Further addition of surfactant will not further affect the surface tension. CMC may therefore be measured by observing the change in surface tension as a function of surfactant concentration. One such method for measuring this value is the Wilhemy plate method. A Wilhelmy plate is usually a thin iridium-platinum plate attached to a balance by a wire and placed perpendicularly to the air-liquid interface. The balance is used to measure the force exerted on the plate by wetting. This value is then used to calculate the surface tension (γ) according to Equation 1: γ=F/I cos θ Equation 1: wherein I is equal to the wetted perimeter (2w+2d, in which w and d are the […], respectively) and cos θ, the contact angle between the liquid and the plate, is assumed to be 0 in the absence of an extant literature value.
# as §1
# [4] = Solubility in water; details: pure water, without hydrotropes or other surfactants
# [5] = substrate Polyethylene terephthalate
# [6] = chloride counterion, pH=7, 23° C.
SMILES,time to fully saturate a freshly created air-water interface (dynamic surface tension) [1],contact angle (CA) ([2]; substrate Nylon) [°],"contact angle (CA) [2, 5] [°]",contact angle (CA) ([2]; substrate Polyethylene-HD) [°],contact angle (CA) ([2]; substrate Polyethylene) [°],contact angle (CA) ([2]; substrate Polypropylene) [°],contact angle (CA) ([2]; substrate Teflon) [°],"critical micelle concentration (CMC) ([3]; in water, 23° C.)","plateau value of minimum surface tension ([3]; in water, 23° C.)",solubility in water [4],"critical micelle concentration (CMC) [3, 6]","plateau value of minimum surface tension [3, 6]",time to fully saturate the interface (dynamic surface tension) ([1]; freshly created air-water interface)
"C[N+](C)(CCCCCC(=O)NCCC[Si](O[Si](C)(C)C)(O[Si](C)(C)C)O[Si](C)(C)C)CCCCS(=O)(=O)[O-] [Surfactant 5, 4-((6-((3-(1,1,1,5,5,5-hexamethyl-3-((trimethylsilyl)oxy)trisiloxan-3-yl)propyl)amino)-6-oxohexyl)dimethylammonio)butane-1-sulfonate]",one second or less,0,0,0,0,0,10.2,about 0.39 mmol,about 21 mN/m,–,–,–,–
"CN(C)CCCCCC(=O)NCCC[Si](O[Si](C)(C)C)(O[Si](C)(C)C)O[Si](C)(C)C [Surfactant 1, 6-(dimethylamino)-N-(3-(1,1,1,5,5,5-hexamethyl-3-((trimethylsilyl)oxy)trisiloxan-3-yl)propyl)hexanamide]",–,–,–,–,–,–,–,–,–,slightly soluble,–,–,–
"CN(C)CCCCCC(=O)NCCC[Si](O[Si](C)(C)C)(O[Si](C)(C)C)O[Si](C)(C)C [Surfactant 2, 6-((3-(1,1,1,5,5,5-hexamethyl-3-((trimethylsilyl)oxy)trisiloxan-3-yl)propyl)amino)-N,N-dimethyl-6-oxohexan-1-aminium chloride]",–,–,–,–,–,–,–,–,–,–,about 2 mmol,about 23 mN/m,–
"C[N+](C)([O-])CCCCCC(=O)NCCC[Si](O[Si](C)(C)C)(O[Si](C)(C)C)O[Si](C)(C)C [Surfactant 4, 6-((3-(1,1,1,5,5,5-hexamethyl-3-((trimethylsilyl)oxy)trisiloxan-3-yl)propyl)amino)-N,N-dimethyl-6-oxohexan-1-amine oxide]",one second or less,0,0,–,0,0,10.6,about 0.49 mmol,about 20 mN/m,–,–,–,–
"C[N+](C)(C)CCCCCC(=O)NCCC[Si](O[Si](C)(C)C)(O[Si](C)(C)C)O[Si](C)(C)C [Surfactant 3, 6-((3-(1,1,1,5,5,5-hexamethyl-3-((trimethylsilyl)oxy)trisiloxan-3-yl)propyl)amino)-N,N,N-trimethyl-6-oxohexan-1-aminium iodide]",–,0,0,–,0,0,10.5,about 1.6 mmol,around 20 mN/m,–,–,–,less than 500 ms
